# According to US20210392936A1, “Nutritional composition comprising urea and non-digestible oligosaccharides” (N.V. Nutricia, priority 2018, published 2021):
# Legend:
# [1] = test system: urease negative Bifidobacteria (Bifidobacterium breve DSM20213); test: Growth with urea or tryptone as nitrogen source, scGOS/IcFOS as carbon source (Example 3, second experiment), urease negative; format: cell-based; conditions: CO2 gas, 50 mM urea, scGOS/IcFOS 20 g/l
# [2] = test system: Bifidobacterium longum subspecies infantis ATCC 17930 (urease positive); test: Growth of strain ATCC 17930 with or without urea, CO2 and 2'FL as carbon source (Example 4); format: cell-based; conditions: 10 mM urea
# Experimental: In this experiment the urease positive strain Bifidobacterium longum subspecies infantis ATCC 17930, was used. The same growth media and experimental set up as in the second experiment described in example 3 was used, except that instead of scGOS/IcFOS, 2′-fucosyllactose (Jennewein Biotechnologie GmbH) was used as a carbon and energy source. As a nitrogen source tryptone was added (3.0 g/l), or no urea or 10 mM urea (final concentration), corresponding to 0, or 0.6 g/l urea.
# [3] = test system: Bifidobacterium breve DSM20213 (urease negative); test: Fermenter growth of urease negative Bifidobacterium with or without urea and CO2 (Example 3, first experiment); format: cell-based; conditions: urea N source (100 mM), lactose 20 g/l
# Description: (§1) The following strains were used: Bifidobacterium breve DSM20213, which is the type strain of B. breve and urease negative. A mix of Bifidobacterium longum subspecies infantis strains was used that were predicted to be urease positive, to increase the chance of having a urease activity. […] Strains used were a mix of Bifidobacterium longum spp infantis DSM20088 (type strain), B. infantis M-63 (Morinaga), B. longum subspecies infantis ATCC 17930, B. longum subspecies infantis DN_163_0041 isolated from the faeces of a bottle-fed infants, B. infantis DN_163_0046 and B. longum ssp. infantis R-0033 (Lallemand) and Bifidobacterium bifidum ATCC29521 (type strain).
# (§2) g/l yeast extract, 0.75 g/l tryptone, 3 g/l KH2PO4, 4.8 g/l K2HPO4, 0.2 g/l MgSO4, 0.5 g Cysteine.HCl, 15 g Sodium Propionate, supplemented with 10 ml vitamin mix and 10 ml metal mix from 100× concentrates (Teusink et al. 2005, AEM, Vol 71 (issue 11) p. 7253-7262) and 100 μM NiCl. The pH of this medium is 6.8 (+/−0.05). As carbon source 20 g/l lactose was used and when appropriate urea was added to a final concentration of 100 mM. The medium was sterilized using filtration step with a 0.22 μm filter. […] Precultures of bifidobacterium strains were grown statically in absence of urea at 37° C. in an anaerobic atmosphere (90% N2, 5% Hz, 5% CO2).
# (§3) Inoculation occurred from a single colonies grown on TOS-mupirocin agar plates as known in the art. The main cultures (in the fermenters) were performed with 1×BASE supplemented with 0, 15, 50 or 100 mM urea (if applicable). During fermentation the headspace was flushed with N2 gas or with an anaerobic gas mixture ((90% N2, 5% H2, 5% CO2). CO2 is known to be needed for the growth of most Bifidobacteria in the absence of substrates that can liberate CO2.
# (§4) The main fermenters were inoculated with the preculture of B. breve at an OD600 of 0.05. For the B. longum subspecies infantis and bifidum mix the individual precultures were first mixed in an equal amount based on OD600 and subsequently also inoculated with a start OD600 of 0.05. The medium was stirred at 360 rpm by magnet stirring bar. The pH was controlled at 6.2 by addition of 5M NaOH. All growth (precultures, main fermenters, agar plates) experiments were performed at 37° C. Growth was monitored in time by off-line OD600 measurement. Samples were diluted before measurement where appropriate.
# [4] = test system: urease positive Bifidobacteria (mix of Bifidobacterium longum subspecies infantis strains and Bifidobacterium bifidum ATCC29521); test: Fermenter growth of urease positive Bifidobacteria mix with or without urea and CO2 (Example 3, first experiment); format: cell-based; conditions: urea N source (100 mM), lactose 20 g/l
# Description: as §1, §2, §3, §4
# [5] = test system: urease positive B. longum ssp. infantis strains M-63, ATCC17930, DN_163_0041 and R-0033; test: Growth with urea concentrations or tryptone as nitrogen source, scGOS/IcFOS as carbon source (Example 3, second experiment), urease positive; format: cell-based, Bifidobacterium longum ssp. infantis; conditions: scGOS/IcFOS 20 g/l
# Experimental: Fermenters were sterilized containing 80 ml demi water and 20 ml of a 20 wt % solution of scGOS/IcFOS in a 9:1 wt/wt ratio. As a source of scGOS VivinalGOS (DOMO, Friesland Campina) was used, and as a source of IcFOS, RaftilinHP was used (Orafti). After sterilization 100 ml of sterilized 2× concentrated BASE medium was added. The final concentration of scGOS/IcFOS was 2 wt % based on volume, and this served as the carbon source. As a nitrogen source tryptone was added (3.0 g/l), or 0, 10, 50 or 100 mM urea (final concentration), corresponding to 0, 0.6 g/l, 3 g/l and 6 g/l. Precultures were grown in static tubes in 1×BASE supplemented with 3.0 g/l tryptone and 2 wt % scGOS/IcFOS under an anaerobic gas atmosphere (90% N2, 5% Hz, 5% CO2).
# as §3, §4
# A second experiment was performed. Here the growth with different concentrations urea as nitrogen (and CO2) source was compared to Tryptone (from Oxoid) as nitrogen source. In this case only B. longum ssp. infantis strains M-63, ATCC17930, DN_163_0041 and R-0033 were used and tryptone was removed from the basal medium. Where applicable tryptone or urea were added as nitrogen source to final concentrations of 3 g/l and 10, 50 or 100 mM, respectively. Instead of lactose as carbon source scGOS/IcFOS in a 9:1 wt/wt ratio was used in a final concentration of 20 g/l. As a source of scGOS VivinalGOS (FrieslandCampina) was used, and RaftininHP (Orafti) was used as IcFOS source.
# [6] = test system: B. longum spp infantis M-63, B. longum subspecies infantis ATCC 17930, B. longum ssp. infantis R-0033 (single strains); test: Growth of single urease positive strains with urea and a carbon source without CO2 and other nitrogen source; format: cell-based, Bifidobacterium longum subspecies infantis; conditions: presence of urea and a carbon source, absence of CO2 and other nitrogen source; data not shown
# Description: as §1
compound,measurement,setting,value
NC(N)=O [urea],Growth expressed as OD600,[1]; 15 min,0.074 OD600
same,Growth expressed as OD600,[1]; 135 min,0.125 OD600
same,Growth expressed as OD600,[1]; 270 min,0.280 OD600
same,Growth expressed as OD600,[1]; 445 min,0.460 OD600
same,Growth expressed as OD600,[1]; 625 min,0.590 OD600
same,Growth expressed as OD600,[1]; 24 h,1.020 OD600
same,Growth expressed as OD600,"[2]; CO2 gas, with 2'FL C source (+), 30 min",0.072 OD600
same,Growth expressed as OD600,"[2]; CO2 gas, with 2'FL C source (+), 240 min",0.298 OD600
same,Growth expressed as OD600,"[2]; CO2 gas, with 2'FL C source (+), 360 min",0.880 OD600
same,Growth expressed as OD600,"[2]; CO2 gas, with 2'FL C source (+), 540 min",2.070 OD600
same,Growth expressed as OD600,"[2]; CO2 gas, with 2'FL C source (+), 24 h",3.060 OD600
same,Growth expressed as OD600,"[2]; CO2 gas, without 2'FL C source (−), 30 min",0.071 OD600
same,Growth expressed as OD600,"[2]; CO2 gas, without 2'FL C source (−), 240 min",0.203 OD600
same,Growth expressed as OD600,"[2]; CO2 gas, without 2'FL C source (−), 360 min",0.191 OD600
same,Growth expressed as OD600,"[2]; CO2 gas, without 2'FL C source (−), 540 min",0.191 OD600
same,Growth expressed as OD600,"[2]; CO2 gas, without 2'FL C source (−), 24 h",0.187 OD600
same,Growth expressed as OD600,"[2]; N2 gas, with 2'FL C source (+), 30 min",0.079 OD600
same,Growth expressed as OD600,"[2]; N2 gas, with 2'FL C source (+), 240 min",0.154 OD600
same,Growth expressed as OD600,"[2]; N2 gas, with 2'FL C source (+), 360 min",0.350 OD600
same,Growth expressed as OD600,"[2]; N2 gas, with 2'FL C source (+), 540 min",0.600 OD600
same,Growth expressed as OD600,"[2]; N2 gas, with 2'FL C source (+), 24 h",1.320 OD600
same,Growth expressed as OD600,"[2]; N2 gas, without 2'FL C source (−), 30 min",0.068 OD600
same,Growth expressed as OD600,"[2]; N2 gas, without 2'FL C source (−), 240 min",0.175 OD600
same,Growth expressed as OD600,"[2]; N2 gas, without 2'FL C source (−), 360 min",0.179 OD600
same,Growth expressed as OD600,"[2]; N2 gas, without 2'FL C source (−), 540 min",0.163 OD600
same,Growth expressed as OD600,"[2]; N2 gas, without 2'FL C source (−), 24 h",0.157 OD600
same,Growth expressed as OD600,"[3]; CO2 gas, 60 min",0.062 OD600
same,Growth expressed as OD600,"[3]; CO2 gas, 180 min",0.083 OD600
same,Growth expressed as OD600,"[3]; CO2 gas, 360 min",0.211 OD600
same,Growth expressed as OD600,"[3]; CO2 gas, 660 min",1.560 OD600
same,Growth expressed as OD600,"[3]; CO2 gas, 23 h",2.250 OD600
same,Growth expressed as OD600,"[3]; N2 gas, 60 min",0.051 OD600
same,Growth expressed as OD600,"[3]; N2 gas, 180 min",0.061 OD600
same,Growth expressed as OD600,"[3]; N2 gas, 360 min",0.072 OD600
same,Growth expressed as OD600,"[3]; N2 gas, 660 min",0.054 OD600
same,Growth expressed as OD600,"[3]; N2 gas, 23 h",0.046 OD600
same,Growth expressed as OD600,"[4]; CO2 gas, 60 min",0.099 OD600
same,Growth expressed as OD600,"[4]; CO2 gas, 180 min",0.168 OD600
same,Growth expressed as OD600,"[4]; CO2 gas, 360 min",0.680 OD600
same,Growth expressed as OD600,"[4]; CO2 gas, 660 min",3.940 OD600
same,Growth expressed as OD600,"[4]; CO2 gas, 23 h",3.850 OD600
same,Growth expressed as OD600,"[4]; N2 gas, 60 min",0.095 OD600
same,Growth expressed as OD600,"[4]; N2 gas, 180 min",0.161 OD600
same,Growth expressed as OD600,"[4]; N2 gas, 360 min",0.560 OD600
same,Growth expressed as OD600,"[4]; N2 gas, 660 min",3.930 OD600
same,Growth expressed as OD600,"[4]; N2 gas, 23 h",3.700 OD600
same,Growth expressed as OD600,"[5]; CO2 gas, 50 mM urea, 15 min",0.079 OD600
same,Growth expressed as OD600,"[5]; CO2 gas, 50 mM urea, 135 min",0.161 OD600
same,Growth expressed as OD600,"[5]; CO2 gas, 50 mM urea, 270 min",0.670 OD600
same,Growth expressed as OD600,"[5]; CO2 gas, 50 mM urea, 445 min",2.610 OD600
same,Growth expressed as OD600,"[5]; CO2 gas, 50 mM urea, 625 min",6.500 OD600
same,Growth expressed as OD600,"[5]; CO2 gas, 50 mM urea, 24 h",6.5 OD600
same,Growth expressed as OD600,"[5]; N2 gas, 10 mM urea, 15 min",0.084 OD600
same,Growth expressed as OD600,"[5]; N2 gas, 10 mM urea, 135 min",0.137 OD600
same,Growth expressed as OD600,"[5]; N2 gas, 10 mM urea, 270 min",0.390 OD600
same,Growth expressed as OD600,"[5]; N2 gas, 10 mM urea, 445 min",1.280 OD600
same,Growth expressed as OD600,"[5]; N2 gas, 10 mM urea, 625 min",3.900 OD600
same,Growth expressed as OD600,"[5]; N2 gas, 10 mM urea, 24 h",3.720 OD600
same,Growth expressed as OD600,"[5]; N2 gas, 50 mM urea, 15 min",0.082 OD600
same,Growth expressed as OD600,"[5]; N2 gas, 50 mM urea, 135 min",0.140 OD600
same,Growth expressed as OD600,"[5]; N2 gas, 50 mM urea, 270 min",0.450 OD600
same,Growth expressed as OD600,"[5]; N2 gas, 50 mM urea, 445 min",1.260 OD600
same,Growth expressed as OD600,"[5]; N2 gas, 50 mM urea, 625 min",2.970 OD600
same,Growth expressed as OD600,"[5]; N2 gas, 50 mM urea, 24 h",2.850 OD600
same,Growth expressed as OD600,"[5]; N2 gas, 100 mM urea, 15 min",0.079 OD600
same,Growth expressed as OD600,"[5]; N2 gas, 100 mM urea, 135 min",0.144 OD600
same,Growth expressed as OD600,"[5]; N2 gas, 100 mM urea, 270 min",0.430 OD600
same,Growth expressed as OD600,"[5]; N2 gas, 100 mM urea, 445 min",1.130 OD600
same,Growth expressed as OD600,"[5]; N2 gas, 100 mM urea, 625 min",2.800 OD600
same,Growth expressed as OD600,"[5]; N2 gas, 100 mM urea, 24 h",2.520 OD600
same,Growth of single strains,[6],able to grow very well
